Measurements as given in patent publication US6924266B2, “NTP-peptides and method for removal of tumors” (Nymox Corporation, priority 2001, dated 2005).

Test system: muscle tissue, subcutaneous connective tissue, and dermis
Test: Effect on tissue at sites of injection in normal rats, histopathology at 24 hours
Type: in vivo
Conditions: for effect on tissue at sites of injection (histopathology): injected in skin, subcutaneously and in extremity skeletal muscle, in saline, 100 to 400 mL at 0.1-1 mg/mL, sacrificed at 24 hours; for muscle changes at injection sites compared with controls: extremity skeletal muscle injection; for muscle changes at injection sites compared with controls / spread of necrosis / cell death beyond the site of injection: 24 hours; for spread of necrosis / cell death beyond the site of injection: local injection
Procedure: Eight normal rats were injected in the skin and subcutaneously, each in four different foci, and in extremity skeletal muscle, each in two different foci, with NTP peptide #43 in saline in quantities of […] at concentrations of 0.1-1 mg/mL delivered from plastic syringes through stainless steel 26 gauge needles.
The 48 individual foci of infiltration were excised, fixed in 10% formalin, embedded in paraffin, and stained and examined by standard histopathological methods.
Similar groups of control rats were injected with (1) bovine serum albumin 0.1% in saline, (2) normal human serum, (3) physiological saline, (4) noninfectious bacterial proteins, and (5) control peptides and purified and then examined and sacrificed as above, with the excised foci of injection treated as above.
Eight normal rats were injected in the skin and subcutaneously, each in four different foci, and in extremity skeletal muscle, each in two different foci, with NTP peptide #17 in saline in quantities of […] at concentrations of 0.1-1 mg/mL delivered from plastic syringes through stainless steel 26 gauge needles.
The controls were the same as Example 1.
Eight normal rats were injected in the skin and subcutaneously, each in four different foci, and in extremity skeletal muscle, each in two different foci, with NTP peptide #20 in saline in quantities of […] at concentrations of 0.1-1 mg/mL delivered from plastic syringes through stainless steel 26 gauge needles.
Eight normal rats were injected in the skin and subcutaneously, each in four different foci, and in extremity skeletal muscle, each in two different foci, with NTP peptide #19 in saline in quantities of […] at concentrations of 0.1-1 mg/mL delivered from plastic syringes through stainless steel 26 gauge needles.
Eight normal rats were injected in the skin and subcutaneously, each in four different foci, and in extremity skeletal muscle, each in two different foci, with NTP peptide #16 in saline in quantities of […] at concentrations of 0.1-1 mg/mL delivered from plastic syringes through stainless steel 26 gauge needles.
Eight normal rats were injected in the skin and subcutaneously, each in four different foci, and in extremity skeletal muscle, each in two different foci, with NTP peptide #15 in saline in quantities of […] at concentrations of 0.1-1 mg/mL delivered from plastic syringes through stainless steel 26 gauge needles.
Eight normal rats were injected in the skin and subcutaneously, each in four different foci, and in extremity skeletal muscle, each in two different foci, with NTP peptide #14 in saline in quantities of […] at concentrations of 0.1-1 mg/mL delivered from plastic syringes through stainless steel 26 gauge needles.

Sequence | effect on tissue at sites of injection (histopathology) | muscle changes at injection sites compared with controls | spread of necrosis / cell death beyond the site of injection
KCWDYRRAAVPGLFILFFL (listed as Homo sapiens) [NTP peptide #15] | cell death and necrosis of tissue at the injection sites | – | –
FILFFLRHRCPTLTQDEVQWCDHSS (listed as Homo sapiens) [NTP peptide #20] | cell death and necrosis of tissue at the injection sites | entire fields of muscle fiber layers were necrotic | did not appear to spread far beyond the site of injection
KCWDYRRAAVPGLFILFFLRHRCPTLTQDEVQWCDHSS (listed as Homo sapiens) [NTP peptide #17] | abundant acute necrosis of tissue at the injection sites | entire fields of muscle fiber layers were necrotic | did not appear to spread far beyond the site of injection
FILFFLRHRCPTL (listed as Homo sapiens) [NTP peptide #19] | cell death and necrosis of tissue at the injection sites | – | –
KCWDYRRAAVPGL (listed as Homo sapiens) [NTP peptide #14] | cell death and necrosis of tissue at the injection sites | – | –
KCWDYRRAAVPGLFILFFLRHRCP (listed as Homo sapiens) [NTP peptide #16] | cell death and necrosis of tissue at the injection sites | – | –
